In ChEMBL document CHEMBL1201862, “PubChem BioAssay data set” (2004):
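Five concentrations, 48 hours, 96-well plates. GI50 marks 50% less growth.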 Activity calls are given as the source filed them. Rule as the data show it: active = GI50 up to about 1.1 µM and inactive = higher.

Columns and labels:
Experiment in all cases: NCI anticancer screen, dose series, 48 h
LOX IMVI = tested on: LOX IMVI
HCC 2998 = tested on: HCC 2998
HOP-62 = tested on: HOP-62
OVCAR-4 = tested on: OVCAR-4
K562 = tested on: K562
HOP-92 = tested on: HOP-92
SN12C = tested on: SN12C
SW-620 = tested on: SW-620
KM12 = tested on: KM12
M14 = tested on: M14
BT-549 = tested on: BT-549
SF-268 = tested on: SF-268
Hs-578T = tested on: Hs-578T
UACC-62 = tested on: UACC-62
MOLT-4 = tested on: MOLT-4
A498 = tested on: A498
SNB-75 = tested on: SNB-75
OVCAR-3 = tested on: OVCAR-3
SF-295 = tested on: SF-295
UO-31 = tested on: UO-31

Measured: GI50

Cc1cccc2c1c(=O)c1c(O)cc(O)cc1n2C
inactive: LOX IMVI 82 µM | HCC 2998 > 100 µM | HOP-62 > 100 µM | OVCAR-4 > 100 µM | K562 80.5 µM | HOP-92 92.9 µM | SN12C > 100 µM | SW-620 > 100 µM | KM12 > 100 µM | M14 55 µM | BT-549 > 100 µM | SF-268 > 100 µM | Hs-578T 33.8 µM | UACC-62 90.6 µM | MOLT-4 70.5 µM | A498 59 µM | SNB-75 39.4 µM | OVCAR-3 > 100 µM | SF-295 89.1 µM

O=S1(=O)c2ccccc2C(Nc2ccccc2)N1c1ccccc1 (centres undefined)
inactive: LOX IMVI > 100 µM | HCC 2998 > 100 µM | HOP-62 > 100 µM | OVCAR-4 67.6 µM | K562 27.6 µM | HOP-92 38.5 µM | SN12C > 100 µM | SW-620 > 100 µM | KM12 72.3 µM | BT-549 58.9 µM | SF-268 > 100 µM | Hs-578T > 100 µM | UACC-62 > 100 µM | UO-31 68.1 µM | MOLT-4 50.4 µM | A498 > 100 µM | SNB-75 > 100 µM | OVCAR-3 > 100 µM | SF-295 > 100 µM

CC1(C)C(=O)/C(=C/c2ccccc2)C(C)(C)C1(C)C
inactive: LOX IMVI 35.4 µM | HCC 2998 > 91.4 µM | HOP-62 40.9 µM | OVCAR-4 > 75.3 µM | K562 35.2 µM | HOP-92 > 40 µM | SN12C 50.8 µM | SW-620 60.3 µM | KM12 49.9 µM | M14 85.1 µM | BT-549 36.1 µM | Hs-578T 40.6 µM | UACC-62 54.1 µM | UO-31 52.6 µM | MOLT-4 56.2 µM | A498 36.1 µM | SNB-75 46.8 µM | OVCAR-3 > 39.3 µM | SF-295 > 100 µM

CCOC(=O)c1cc(Br)c(-c2onc(C)c2Br)[nH]1
inactive: LOX IMVI 98.6 µM | HCC 2998 53.7 µM | HOP-62 18.3 µM | OVCAR-4 88.1 µM | K562 > 100 µM | HOP-92 48.1 µM | SN12C 80.7 µM | SW-620 > 100 µM | KM12 > 100 µM | M14 66.2 µM | BT-549 43 µM | SF-268 41.4 µM | Hs-578T 26.7 µM | UACC-62 36.9 µM | UO-31 > 100 µM | MOLT-4 > 100 µM | A498 48.2 µM | SNB-75 > 100 µM | OVCAR-3 > 100 µM | SF-295 43.1 µM

NN=C(CC(O)(C(F)(F)Cl)C(F)(F)Cl)CC(O)(C(F)(F)Cl)C(F)(F)Cl
inactive: LOX IMVI > 10 µM | HCC 2998 > 10 µM | HOP-62 > 10 µM | OVCAR-4 > 10 µM | K562 > 10 µM | HOP-92 > 10 µM | SN12C > 10 µM | SW-620 > 10 µM | KM12 > 10 µM | M14 > 10 µM | BT-549 > 10 µM | SF-268 > 10 µM | Hs-578T > 10 µM | UACC-62 > 10 µM | MOLT-4 > 10 µM | A498 > 10 µM | SNB-75 > 10 µM | OVCAR-3 > 10 µM | SF-295 > 10 µM

O=C1/C(=C/c2cccc([N+](=O)[O-])c2)N=C(c2ccccc2)N1c1ccc2c(c1)Sc1cc(N3C(=O)/C(=C/c4cccc([N+](=O)[O-])c4)N=C3c3ccccc3)ccc1N2
inactive: LOX IMVI 27 µM | HCC 2998 > 100 µM | HOP-62 20 µM | OVCAR-4 18.7 µM | K562 27.3 µM | HOP-92 28.1 µM | SW-620 31.2 µM | KM12 > 100 µM | M14 32.9 µM | BT-549 23 µM | SF-268 20.1 µM | Hs-578T 30.2 µM | UACC-62 17 µM | UO-31 53.3 µM | MOLT-4 36.9 µM | A498 23.6 µM | SNB-75 16.7 µM | OVCAR-3 12.6 µM | SF-295 14 µM

COC(=O)c1nc2c(C)c(O)c(O)c([C@H](C)CCC=C(C)C)c2o1
inactive: LOX IMVI 43.2 µM | HCC 2998 30.1 µM | HOP-62 16.5 µM | OVCAR-4 30.1 µM | K562 50.6 µM | HOP-92 26.5 µM | SW-620 39.5 µM | KM12 23.3 µM | M14 37.3 µM | BT-549 37.6 µM | SF-268 33.3 µM | Hs-578T 30.5 µM | UACC-62 > 10 µM | UO-31 17.7 µM | MOLT-4 24.9 µM | A498 21.7 µM | SNB-75 18.2 µM | OVCAR-3 26.5 µM | SF-295 25 µM

NCC(=O)Nc1ccc(S(=O)(=O)O)c2cc(S(=O)(=O)O)cc(S(=O)(=O)O)c12
inactive: LOX IMVI > 100 µM | HCC 2998 > 100 µM | HOP-62 > 100 µM | OVCAR-4 > 100 µM | K562 > 100 µM | HOP-92 > 100 µM | SN12C > 100 µM | SW-620 > 100 µM | KM12 > 100 µM | M14 > 100 µM | BT-549 > 100 µM | SF-268 > 100 µM | Hs-578T > 100 µM | UACC-62 > 100 µM | UO-31 > 100 µM | MOLT-4 > 100 µM | A498 > 100 µM | SNB-75 > 100 µM | OVCAR-3 > 100 µM | SF-295 > 100 µM

O=S(=O)(O)c1cc(/N=N/c2cc(S(=O)(=O)O)c3cccnc3c2O)ccc1/C=C/c1ccc(/N=N/c2cc(S(=O)(=O)O)c3cccnc3c2O)cc1S(=O)(=O)O
inactive: LOX IMVI > 94.8 µM | HCC 2998 > 100 µM | HOP-62 > 100 µM | OVCAR-4 > 100 µM | K562 34 µM | HOP-92 > 72.4 µM | SN12C > 100 µM | SW-620 > 100 µM | KM12 > 100 µM | M14 63.2 µM | BT-549 > 100 µM | SF-268 > 100 µM | Hs-578T > 100 µM | UACC-62 > 100 µM | UO-31 > 100 µM | MOLT-4 20.4 µM | A498 > 100 µM | SNB-75 > 100 µM | OVCAR-3 > 100 µM | SF-295 > 100 µM

O=C1C2C3C=CC(C2C(=O)N1CN1CCOCC1)C1C2C(=O)N(CN4CCOCC4)C(=O)C2C31 (centres undefined)
inactive: LOX IMVI > 43.5 µM | HCC 2998 > 46.5 µM | HOP-62 > 100 µM | OVCAR-4 > 43.9 µM | K562 25.8 µM | HOP-92 > 62.1 µM | SN12C > 44.7 µM | SW-620 > 46.5 µM | KM12 > 44.7 µM | M14 > 42.9 µM | BT-549 > 100 µM | SF-268 > 44.5 µM | Hs-578T > 100 µM | UACC-62 > 47 µM | UO-31 > 54 µM | MOLT-4 18.2 µM | A498 > 57.4 µM | SNB-75 > 47.3 µM | OVCAR-3 > 55.7 µM | SF-295 > 62.2 µM
